According to patent US9351998B2, “Methods of nourishing animals” (MariCal, Inc., priority 2008, dated 2016):

What was measured:
chicken CaSR = assay: CaSR dependent ERK 1/2 phosphorylation (Western blot) in HEK cells transfected with chicken CaSR; assay type: cell-based; details: 1 micromolar MC 0100
Procedure: HEK cells transfected with the chicken CaSR were cultured under standard conditions (DMEM with 10% FCS). Confluent flasks were serum-starved overnight in DMEM supplemented with 0.2% BSA and pre-incubated for 60 min at 37° C. in the following medium: 125 mM NaCl, 4 mM KCl, 20 mM Hepes, 0.1% glucose, 0.8 mM NaH2PO4, 1 mM MgCl2, 0.1% BSA, 0.5 mM CaCl2, pH 7.45. The cells were then incubated in the same medium without BSA in the presence of different mineral chelates at different concentrations (see below) for 15 min at 37° C. At the end of the incubation treatment media was removed and cells were washed with PBS and than lysed in 250 microliter of M-PER lysis buffer (Pierce Chemical Company, Rockford, Ill.) containing 10 ul/ml of protease inhibitors (Pierce Chemical Company, Rockford, Ill.). Cell lysates were centrifuged for 10 min at 4° C. at 14,000×g. The protein content in the supernatants was analyzed using the BCA Protein Assay system from Pierce Chemical Company, Rockford, Ill. Equal amounts of protein (20 ug) were combined with 4× loading buffer and […] DTT, heated to 95° C., separated by SDS gel electrophoresis and electrotransferred to PVD membranes. The membranes were incubated in 1% BSA in TBS-T (TRIS-buffered saline containing Tween 20 at 0.1%) overnight. After 4 washes in TBS-T the membranes were incubated with primary antibody (anti phosphoERK at 1:400 dilution; this antibody recognizes the phosphorylated form of ERK 1/2) for 1.5 hours at room temperatures, washed 4 times and incubated with secondary antibody (anti mouse at 1:50,000 dilution). After 4 washes in TBS-T the membranes were developed using the ECL Western Blotting system.
The experiments described in FIGS. 34 A and B used the following metal chelate treatments: ZnProteinate, CuProteinate and MnProteinate (Balchem Corporation, New Hampton, N.Y.) at the following concentrations: 0.025% and 2.5%, or at a concentration of 0.025% with 1 micromolar MC 0100 (a calcimimetic); or various concentrations of bacitracin Zn.

avian CaSR = assay: FURA2 ratio imaging fluorimetry of HEK cells stably expressing avian (chicken) CaSR; assay type: cell-based
Description: All methods and equipment utilized to perform experiments on HEK cells have been reported previously (Gama, L. and Breitwieser, G. E. 1998. A carboxyl-terminal domain controls the cooperativity for extracellular Ca2+ activation of the human calcium sensing receptor. A study with receptor-green fluorescent protein fusions. J. Biol. Chem. 273, 29712-29718; Bai, M., Quinn, S., Trivedi, S., Kifor, 0., Pearce, S. H., Pollak, M. R., Krapcho, K., Hebert, S. C. and Brown, E. M. 1996. Expression and characterization of inactivating and activating mutations in the human Ca2+o-sensing receptor. J. Biol. Chem. 271, 19537-19544). Untransfected HEK cells or, alternatively, cells transfected and expressing CaSR protein were cultured in Dulbecco's Modified Eagle Medium containing 10% fetal bovine serum and 1% penicillin-streptomycin in 75 cm^2 flasks until they reached confluence. Media was removed from the flasks and cells were loaded by exposure to Loading Buffer (125 mM NaCl, 4 mM KCl, 1.0 mMCaCl2, 1.0 mM MgCl2, 1 mM NaH2PO4, 20 mM HEPES, 1 gm/liter bovine serum albumin, and 1 gm/l glucose, pH ˜7.4, osmolality ˜285) containing 4.1 micromolar FURA2-AM (Molecular Probes Inc. Eugene, Oreg.) for 2 hr. Cells were then scraped from the surface of the flask using a standard cell scraper (Costar 3010, Corning Inc.). Cells were then pelleted from the suspension by low speed centrifugation to remove loading buffer and rinsed twice to remove extracellular FURA2 dye by two sequential suspensions and pelleting steps using low speed centrifugation. Immediately prior to the start of the experiment, cells were resuspended in various experimental buffers for analyses as described below. The Standard Experimental Buffer used for many studies was composed of: 125 mM NaCl, 4 mM KCl, 0.5 mMCaCl2, 0.5 mM MgCl2, 20 mM HEPES, 1 g/l glucose, pH ˜7.4, osmolality ˜285. All other buffers were variations on this basic composition where specific components within the Standard Experimental Buffer were varied while the remaining components were held constant.
Cell suspensions consisting of a total volume of 3 ml were analyzed in a PTI fluorimeter (PTI Model 814 Photomultiplier Detection System equipped with SC-500 Shutter Controller and PTI Driver and Analysis Software) within approximately 20 min after exposure to experimental buffers. Data was acquired using standard ratio image analysis as described previously using a data acquisition rate of 1.3 sec. for 500 or 1000 second intervals.
In selected experiments, the detergent Triton X-100 was added in order to lyse the cells and quantify differences in FURA2 ratio fluorescence. Triton X-100 was added to the cells to obtain a maximal fluorescence signal from the FURA2 for purposes of quantification.
The ability of the CaSR modulator MC0100 to potentiate the response of avian and mammalian CaSRs to the chelated mineral amino acid complex, ZnPro, was tested. For avian CaSR experiments, three individual aliquots from a single pool of HEK cells that stably express the recombinant avian CaSR protein were used for ratio imaging fluorimetry assays of CaSR activation generally as described in Example 6 herein. […] In all aliquots, the detergent Triton X-100 was added as the last addition to lyse the cells (FIG. 29A).
From a single pool of HEK cells stably expressing the avian CaSR, aliquots of cells were removed and analyzed using ratio imaging fluorimetry generally as described in Example 6 herein. After a standard addition of Ca++ to a final concentration of 2.5 mM, either 0.0025%, 0.025% or 0.25% Zinc Proteinate was added followed by a second addition of Ca++ to a final concentration of 7.5 mM. Subsequently, an aliquot of the detergent Triton X-100 was added to lyse the cells. […] The magnitude of the subsequent CaSR response to Ca++ was reduced via increasing Zn Proteinate stimulation.
Fluorimetry analysis was performed on HEK cells expressing the recombinant chicken CaSR protein generally as described in Example 6 herein.

`COc1cccc([C@@H](C)NCCCc2ccccc2)c1` [MC0100] was tested, and the “effect on ERK1/2 phosphorylation response to 0.025% Cu Proteinate” value (chicken CaSR) was “net reduction”, the “effect on ERK1/2 phosphorylation response to 0.025% Mn Proteinate” value (chicken CaSR) was “strongly enhanced” and the “effect of prior modulator on CaSR response to 0.25% Mintrex Zn” value (avian CaSR; 1 micromolar MC0100, buffer 1.5 mM Ca2+) was “potentiated the response”. For the same compound, the “effect of modulator on CaSR response to ZnPro” value (avian CaSR; MC0100 added before ZnPro) was “potentiates the response”, the “CaSR response to the modulator itself” value (avian CaSR; MC0100 at final 1 micromolar, buffer 1.5 mM Ca2+) was “yielded a response” and the “CaSR response to stepwise additions” value (avian CaSR; after addition of 2.5 mM Ca++ (FIG. 36)) was “increased responses”.
